The test system of series [1] is systolic and diastolic blood pressure. Description: animal or person. The protocol:
Mean baseline ABPM data for the three treatment groups were compared with mean data obtained on Day 26 (last day of treatment) and on Days 27 and 28. A more detailed PK/PD analysis was conducted by using the individual patient ABPM data to compare the blood pressure profile at Baseline and on Day 26 of treatment. The daytime (0- to 12-hour) intervals were used in the analysis, since pharmacokinetic data were collected on Day 25, over the daytime 12-hour dosing interval at steady state. In order to investigate the maintenance of effect at the tail end of the inter-dosing interval, differences between the SBP, DBP, and HR values at Baseline and the last two hours in the inter-dosing interval (Hours 11 and 12) on Day 26 were calculated for each patient. Paired t-tests were performed to test the significance of these differences between Baseline and the last two measuring times. The approach taken to quantify the effects of clonidine on blood pressure was to calculate the difference between the areas under the BP vs. time curves (AUCBP) at Baseline and on Day 26. These values were used to relate the pharmacodynamic effect to dose, as well as to conduct the PK/PD analyses.
Pharmacokinetic-pharmacodynamic modeling was conducted using the blood pressure response data and the Cmax, Cmin and AUCτ values at Day 25 of dosing. […] The data in Table 8 summarize the PK/PD parameters from the sigmoidal Emax model.

For series [2] the following is noted: traditional oral formulation; cited from earlier work.
Setting [3] is: sigmoidal Emax model, Day 25 exposure.

Values after ≈ are worked out from the molar mass of the structure shown. Like-named read-outs stand apart in the source and are kept apart here.

On to `Clc1cccc(Cl)c1NC1=NCCN1` [clonidine, 2,6-dichloro-N-2-imidazolidinylidene benzeneamine], for which the EC50 in series [1] (Homo sapiens, 600 h, read-out: EC50, Diastolic BP vs Cmax) came to 0.431 ng/mL (≈ 1.87 nM). In series [1] (Homo sapiens, 600 h, read-out: EC50, Diastolic BP vs Cmin), the EC50 turned out to be 0.341 ng/mL (≈ 1.48 nM). In addition, the EC50 in series [1] (Homo sapiens, 600 h, read-out: EC50, Systolic BP vs Cmax) came out at 0.458 ng/mL (≈ 1.99 nM). Moreover, in series [1] (Homo sapiens, 600 h, read-out: EC50, Systolic BP vs Cmin), the EC50 worked out at 0.359 ng/mL (≈ 1.56 nM). Besides, the EC90 in series [1] (Homo sapiens, 600 h, read-out: EC90, Diastolic BP vs AUCτ) worked out at 5.92 ng/mL (≈ 25.7 nM). Also, in series [1] (setting [3]), the “Emax (ΔBP), Diastolic BP vs AUCτ” value amounted to 16.8; the “Emax (ΔBP), Diastolic BP vs Cmax” value was 16.7; the “Emax (ΔBP), Diastolic BP vs Cmin” value worked out at 16.8; the “Emax (ΔBP), Systolic BP vs AUCτ” value amounted to 24.3. Besides, in series [1] (setting [3]), the “Emax (ΔBP), Systolic BP vs Cmax” value is 24.3 and the “Emax (ΔBP), Systolic BP vs Cmin” value came out at 24.4. Also, in series [2], the biological half-life result is “four to six”.

The EC50 is the concentration giving half of the maximal effect. In general, EC90 refers to the concentration at which the effect reaches the 90% level.
